In US6914045B2, “Glycopeptide antibiotics” (Wyeth Holdings Corporation, priority 2001, dated 2005):
In brackets after ≈: the same amount, converted by molar mass. Numbered stars: 1 amine (or outer) side, 2 acyl side, 3 side chain; on linkers, the order of the positions; unused ones are H or OH. Square brackets hold non-standard residues; d marks the D form. Peptide text beside a SMILES is read from it. * marks the point of attachment. ξ: configuration not given here. X1 = N=C1NCC(C(O)C(N[*:1])C(=O)[*:2])N1C1OC(CO)C(O)C(O)C1O; ξEnduracididine(βξ-OH,4'ξ) = N=C1NCC(C(O)C(N)C(=O)O)N1; X2 = OCC1OC(OC2C(CO)OC(*)C(O)C2O)C(O)C(O)C1O; Diphenylacetyl = O=C(C(c1ccccc1)c1ccccc1)*; ξPhe(βξ-Me) = CC(c1ccccc1)C(N)C(=O)O

Tests used:
Experiment in all cases: in vitro antibacterial evaluation, MIC by broth dilution
Format in all cases: cell-based
[1] = test system: Streptococcus sp.; details: broth dilution, 18 hours at 35° C.
Outline: (§1)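 MIC, the lowest antibiotic concentration preventing growth, was read across 64-0.06 μg/mL with 5×10^5 CFU/mL inoculum. Method followed NCCLS M7-A2 broth dilution using Mueller-Hinton II; Gram-positive strains covered recent methicillin-, penicillin- and/or vancomycin-resistant clinical isolates.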

[2] = test system: Staphylococcus sp.; details: broth dilution, 18 hours at 35° C.; for MIC Staphylococcus aureus (ATCC 29213): strain ATCC 29213; for MIC Staphylococcus aureus (GC 1131): strain GC 1131; for MIC Staphylococcus aureus (GC 4541): strain GC 4541; for MIC Staphylococcus aureus (GC 4542): strain GC 4542; for MIC Staphylococcus aureus (GC 4544): strain GC 4544; for MIC Staphylococcus aureus (GC 4545): strain GC 4545
Outline: as §1

[3] = test system: Enterococcus sp.; details: broth dilution, 18 hours at 35° C.
Outline: as §1

[4] = test system: Escherichia coli; details: 18 hours at 35° C.
Outline: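 MIC is the lowest antibiotic concentration (tested 64-0.06 μg/mL) preventing growth of a 5×10^5 CFU/mL inoculum. Determined by broth dilution in Mueller-Hinton II medium following NCCLS standard M7-A2.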

[5] = Streptococcus agalactiae (GC 4564)
[6] = Streptococcus pneumoniae (GC 4565)
[7] = Streptococcus pyogenes (ID-3187)
[8] = Enterococcus faecalis (ATCC 29212)
[9] = Enterococcus faecalis (GC 2242)
[10] = Enterococcus faecalis (GC 4552)
[11] = Enterococcus faecalis (GC 4553)
[12] = Enterococcus faecalis (GC 4554)

CC(c1ccccc1)C1NC(=O)CNC(=O)C(COC(=O)C(c2ccccc2)c2ccccc2)NC(=O)C(C(O)C2CNC(=N)N2C2OC(CO)C(O)C(O)C2O)NC(=O)C(C(O)C2CNC(=N)N2)NC(=O)C(Cc2ccc(OC3OC(CO)C(OC4OC(CO)C(O)C(O)C4O)C(O)C3O)cc2)NC1=O (stereo not drawn) [Example 96a, Cyclo[glycyl-β-methylphenylalanyl-O-(4-O-hexopyranosylhexopyranosyl)tyrosyl-3-(2-iminoimidazolidin-4-yl)seryl-3-(3-hexopyranosyl-2-iminoimidazolidin-4-yl)seryl-O-(diphenylacetyl)-seryl]] (cyclo(G[ξPhe(βξ-Me)]Y(X2)[ξEnduracididine(βξ-OH,4'ξ)][X1]S(Diphenylacetyl)); configuration not given here)
MIC Streptococcus agalactiae (GC 4564) [1, 5]: 32 µg/mL (≈ 21.5 µM) | MIC Streptococcus pneumoniae (GC 4565) [1, 6]: 16 µg/mL (≈ 10.7 µM) | MIC Streptococcus pyogenes (ID-3187) [1, 7]: 32 µg/mL (≈ 21.5 µM) | MIC Streptococcus agalactiae (GC 4564) [1]: 32 µg/mL (≈ 21.5 µM) | MIC Streptococcus pneumoniae (GC 4565) [1]: 16 µg/mL (≈ 10.7 µM) | MIC Streptococcus pyogenes (ID-3187) [1]: 32 µg/mL (≈ 21.5 µM) | MIC Coagulase Negative Staphylococcus (GC 4547) [2]: 128 µg/mL (≈ 85.9 µM) | MIC Coagulase Negative Staphylococcus (GC 4548) [2]: >128 µg/mL | MIC Coagulase Negative Staphylococcus (GC 4549) [2]: 64 µg/mL (≈ 43 µM) | MIC Coagulase Negative Staphylococcus (GC 4551) [2]: 128 µg/mL (≈ 85.9 µM) | MIC Coagulase Negative Staphylococcus (ID-3941) [2]: 64 µg/mL (≈ 43 µM) | MIC Staphylococcus aureus-SMITH (GC 4543) [2]: >128 µg/mL | MIC Staphylococcus haemolyticus (GC 4546) [2]: 128 µg/mL (≈ 85.9 µM) | MIC Staphylococcus haemolyticus (GC 4546) ([2]; strain GC 4546): 128 µg/mL (≈ 85.9 µM) | MIC Coagulase Negative Staphylococcus (GC 4547) ([2]; strain GC 4547): 128 µg/mL (≈ 85.9 µM) | MIC Coagulase Negative Staphylococcus (GC 4548) ([2]; strain GC 4548): >128 µg/mL | MIC Coagulase Negative Staphylococcus (GC 4549) ([2]; strain GC 4549): 64 µg/mL (≈ 43 µM) | MIC Coagulase Negative Staphylococcus (GC 4551) ([2]; strain GC 4551): 128 µg/mL (≈ 85.9 µM) | MIC Coagulase Negative Staphylococcus (ID-3941) ([2]; strain ID-3941): 64 µg/mL (≈ 43 µM) | MIC Staphylococcus aureus-SMITH (GC 4543) ([2]; strain SMITH GC 4543): >128 µg/mL | MIC Staphylococcus aureus (ATCC 29213) [2]: >128 µg/mL | MIC Staphylococcus aureus (GC 1131) [2]: >128 µg/mL | MIC Staphylococcus aureus (GC 4541) [2]: 128 µg/mL (≈ 85.9 µM) | MIC Staphylococcus aureus (GC 4542) [2]: >128 µg/mL | MIC Staphylococcus aureus (GC 4544) [2]: >128 µg/mL | MIC Staphylococcus aureus (GC 4545) [2]: >128 µg/mL | MIC Enterococcus avium (GC 4558) ([3]; Enterococcus avium (GC 4558)): >128 µg/mL | MIC Enterococcus faecalis (ATCC 29212) [3, 8]: >128 µg/mL | MIC Enterococcus faecalis (GC 2242) [3, 9]: >128 µg/mL | MIC Enterococcus faecalis (GC 4552) [3, 10]: >128 µg/mL | MIC Enterococcus faecalis (GC 4553) [3, 11]: >128 µg/mL | MIC Enterococcus faecalis (GC 4554) [3, 12]: >128 µg/mL | MIC Enterococcus faecium (GC 2243) ([3]; Enterococcus faecium (GC 2243)): 128 µg/mL (≈ 85.9 µM) | MIC Enterococcus faecium (GC 4556) ([3]; Enterococcus faecium (GC 4556)): >128 µg/mL | MIC Enterococcus faecium (GC 4557) ([3]; Enterococcus faecium (GC 4557)): 32 µg/mL (≈ 21.5 µM) | MIC Enterococcus avium (GC 4558) [3]: >128 µg/mL | MIC Enterococcus faecalis (ATCC 29212) [3]: >128 µg/mL | MIC Enterococcus faecalis (GC 2242) [3]: >128 µg/mL | MIC Enterococcus faecalis (GC 4552) [3]: >128 µg/mL | MIC Enterococcus faecalis (GC 4553) [3]: >128 µg/mL | MIC Enterococcus faecalis (GC 4554) [3]: >128 µg/mL | MIC Enterococcus faecium (GC 2243) [3]: 128 µg/mL (≈ 85.9 µM) | MIC Enterococcus faecium (GC 4556) [3]: >128 µg/mL | MIC Enterococcus faecium (GC 4557) [3]: 32 µg/mL (≈ 21.5 µM) | MIC Escherichia coli (ATCC 25922) [4]: >128 µg/mL

CC(c1ccccc1)C1NC(=O)CNC(=O)C(CO)NC(=O)C(C(O)C2CNC(=N)N2C2OC(CO)C(O)C(O)C2O)NC(=O)C(C(O)C2CNC(=N)N2)NC(=O)C(Cc2ccc(OC3OC(COC(=O)C(c4ccccc4)c4ccccc4)C(OC4OC(CO)C(O)C(O)C4O)C(O)C3O)cc2)NC1=O (stereo not drawn) [Example 96b, Cyclo[glycyl-β-methylphenylalanyl-O-[6-O-(diphenylacetyl)-4-O-hexopyranosylhexopyranosyl]tyrosyl-3-(2-iminoimidazolidin-4-yl)seryl-3-(3-hexopyranosyl-2-iminoimidazolidin-4-yl)serylseryl]]
MIC Streptococcus agalactiae (GC 4564) [1, 5]: 0.25 µg/mL (≈ 0.168 µM) | MIC Streptococcus pneumoniae (GC 4565) [1, 6]: <0.12 µg/mL | MIC Streptococcus pyogenes (ID-3187) [1, 7]: 0.25 µg/mL (≈ 0.168 µM) | MIC Streptococcus agalactiae (GC 4564) [1]: 0.25 µg/mL (≈ 0.168 µM) | MIC Streptococcus pneumoniae (GC 4565) [1]: <0.12 µg/mL | MIC Streptococcus pyogenes (ID-3187) [1]: 0.25 µg/mL (≈ 0.168 µM) | MIC Coagulase Negative Staphylococcus (GC 4547) [2]: 1 µg/mL (≈ 0.671 µM) | MIC Coagulase Negative Staphylococcus (GC 4548) [2]: 0.5 µg/mL (≈ 0.336 µM) | MIC Coagulase Negative Staphylococcus (GC 4549) [2]: 0.5 µg/mL (≈ 0.336 µM) | MIC Coagulase Negative Staphylococcus (GC 4551) [2]: 2 µg/mL (≈ 1.34 µM) | MIC Coagulase Negative Staphylococcus (ID-3941) [2]: 0.5 µg/mL (≈ 0.336 µM) | MIC Staphylococcus aureus-SMITH (GC 4543) [2]: 2 µg/mL (≈ 1.34 µM) | MIC Staphylococcus haemolyticus (GC 4546) [2]: 1 µg/mL (≈ 0.671 µM) | MIC Staphylococcus haemolyticus (GC 4546) ([2]; strain GC 4546): 1 µg/mL (≈ 0.671 µM) | MIC Coagulase Negative Staphylococcus (GC 4547) ([2]; strain GC 4547): 1 µg/mL (≈ 0.671 µM) | MIC Coagulase Negative Staphylococcus (GC 4548) ([2]; strain GC 4548): 0.5 µg/mL (≈ 0.336 µM) | MIC Coagulase Negative Staphylococcus (GC 4549) ([2]; strain GC 4549): 0.5 µg/mL (≈ 0.336 µM) | MIC Coagulase Negative Staphylococcus (GC 4551) ([2]; strain GC 4551): 2 µg/mL (≈ 1.34 µM) | MIC Coagulase Negative Staphylococcus (ID-3941) ([2]; strain ID-3941): 0.5 µg/mL (≈ 0.336 µM) | MIC Staphylococcus aureus-SMITH (GC 4543) ([2]; strain SMITH GC 4543): 2 µg/mL (≈ 1.34 µM) | MIC Staphylococcus aureus (ATCC 29213) [2]: 1 µg/mL (≈ 0.671 µM) | MIC Staphylococcus aureus (GC 1131) [2]: 2 µg/mL (≈ 1.34 µM) | MIC Staphylococcus aureus (GC 4541) [2]: 1 µg/mL (≈ 0.671 µM) | MIC Staphylococcus aureus (GC 4542) [2]: 2 µg/mL (≈ 1.34 µM) | MIC Staphylococcus aureus (GC 4544) [2]: 2 µg/mL (≈ 1.34 µM) | MIC Staphylococcus aureus (GC 4545) [2]: 1 µg/mL (≈ 0.671 µM) | MIC Enterococcus avium (GC 4558) ([3]; Enterococcus avium (GC 4558)): 4 µg/mL (≈ 2.69 µM) | MIC Enterococcus faecalis (ATCC 29212) [3, 8]: 8 µg/mL (≈ 5.37 µM) | MIC Enterococcus faecalis (GC 2242) [3, 9]: 4 µg/mL (≈ 2.69 µM) | MIC Enterococcus faecalis (GC 4552) [3, 10]: 8 µg/mL (≈ 5.37 µM) | MIC Enterococcus faecalis (GC 4553) [3, 11]: 8 µg/mL (≈ 5.37 µM) | MIC Enterococcus faecalis (GC 4554) [3, 12]: 8 µg/mL (≈ 5.37 µM) | MIC Enterococcus faecium (GC 2243) ([3]; Enterococcus faecium (GC 2243)): 8 µg/mL (≈ 5.37 µM) | MIC Enterococcus faecium (GC 4556) ([3]; Enterococcus faecium (GC 4556)): 8 µg/mL (≈ 5.37 µM) | MIC Enterococcus faecium (GC 4557) ([3]; Enterococcus faecium (GC 4557)): 1 µg/mL (≈ 0.671 µM) | MIC Enterococcus avium (GC 4558) [3]: 4 µg/mL (≈ 2.69 µM) | MIC Enterococcus faecalis (ATCC 29212) [3]: 8 µg/mL (≈ 5.37 µM) | MIC Enterococcus faecalis (GC 2242) [3]: 4 µg/mL (≈ 2.69 µM) | MIC Enterococcus faecalis (GC 4552) [3]: 8 µg/mL (≈ 5.37 µM) | MIC Enterococcus faecalis (GC 4553) [3]: 8 µg/mL (≈ 5.37 µM) | MIC Enterococcus faecalis (GC 4554) [3]: 8 µg/mL (≈ 5.37 µM) | MIC Enterococcus faecium (GC 2243) [3]: 8 µg/mL (≈ 5.37 µM) | MIC Enterococcus faecium (GC 4556) [3]: 8 µg/mL (≈ 5.37 µM) | MIC Enterococcus faecium (GC 4557) [3]: 1 µg/mL (≈ 0.671 µM) | MIC Escherichia coli (ATCC 25922) [4]: >128 µg/mL
